These results are taken from US9371336B2, “Compounds for treating spinal muscular atrophy” (PTC Therapeutics Inc., priority 2012, dated 2016).

In test [1] the test system is Smn protein. Description: Smn protein in tissues of neonatal Δ7 SMA mice (HTRF). Type of test: in vivo, mouse. The conditions noted are these: neonatal SMA Δ7 homozygous knockout mice. Here is the method:
(§1) The Smn HTRF protein assay is used to quantify the level of Smn protein in mouse tissues.
(§2) The tissue samples in Safe-Lock tubes are weighed and the volume of RIPA buffer containing the protease inhibitor cocktail is added based on the weight to volume ratios for each type of tissue: Brain (50 mg/mL), Muscle (50 mg/mL) and Spinal Cord (25 mg/mL).
(§3) Tissues are homogenized using the TissueLyzer by bead milling. 5 mm stainless steel beads are added to the sample and shaken vigorously for 5 minutes at 30 Hz in the TissueLyzer. The samples are then centrifuged for 20 minutes at 14,000×g in a microcentrifuge and the homogenates transferred to the PCR plate. The homogenates are diluted in RIPA buffer to approximately 1 mg/mL for HTRF and approximately 0.5 mg/mL for total protein measurement using the BCA protein assay. For the SMN HTRF assay, 35 μL of the tissue homogenate is transferred to a 384-well plate containing 5 μL of the antibody solution (1:100 dilution of each of the anti-SMNd2 and anti-SMN Kryptate in reconstitution buffer). […] Fluorescence for each well of the plate at 665 nm and 620 nm is measured on an EnVision multilabel plate reader (Perkin-Elmer). The total protein in the tissue homogenate is measured using the BCA assay according to the manufacturer's protocol.
(§4) The normalized fluorescence signal is calculated for each sample, Blank and vehicle control well by dividing the signal at 665 nm by the signal at 620 nm. Normalizing the signal accounts for possible fluorescence quenching due to the matrix effect of the tissue homogenate. The ΔF value (a measurement of Smn protein abundance as a percent value) for each tissue sample well is calculated by subtracting the normalized average fluorescence for the Blank control wells from the normalized fluorescence for each tissue sample well, then dividing this difference by the normalized average fluorescence for the Blank control wells and multiplying the resulting value by 100. The ΔF value for each tissue sample well is divided by the total protein quantity (determined using the BCA assay) for that tissue sample. […]

Test [2] deals with gems (Smn-dependent nuclear speckles) in SMA patient fibroblast cells. Description: Gems count (Smn-dependent nuclear speckle count) assay. In kind it is cell-based, human. The settings on record: SMA Type 1 patient cells, 48 hour, fluorescence microscopy (FIG. 7). The source says: The level of Smn protein directly correlates with the amount of nuclear foci, also known as gems, produced upon staining the cell with a fluorescently labeled anti-Smn antibody (Liu and Dreyfuss, EMBO J., 1996, 15:3555). Gems are multi-protein complexes whose formation is nucleated by the Smn protein and the gems count assay is used to evaluate the level of Smn protein in the cell. As described herein, the gems count assay is used to quantify the level of Smn protein in SMA patient fibroblast cells treated with a test compound.
Cells are thawed and incubated in DMEM-10% FBS for 72 hours, then trypsinized, counted and resuspended to 100,000 cells/mL in DMEM-10% FBS. The cell suspension (2 mL) is plated in a 6-well cell culture plate with a sterile cover slip and incubated for 3 to 5 hours. Test compounds are serially diluted 3.16-fold in 100% DMSO to generate a 7-point dilution curve. […]
Cell culture medium is aspirated from the wells containing cover slips and gently washed three times with cold PBS. […] The number of gems is counted per ≧150 nuclei and % activation is calculated using DMSO and 10 nM bortezomib as controls. For each test compound, the cells are examined at all wavelengths to identify test compounds with inherent fluorescence.

The subject of test [3] is Smn protein. Description: Smn protein assay in tissues of adult C/C-allele SMA mice (HTRF). The conditions noted are these: 50 mg/kg BID for 10 days, relative to vehicle group, p<0.001 by ANOVA, n=10 (FIG. 8). In kind it is in vivo, mouse. The protocol: as §1, §2, §3, §4
(TR-FRET usually uses a lanthanide donor and a delayed reading to cut background.)

On to `Cc1ccc2nc(-c3cc4ccc(N5CCN(C)CC5)nc4oc3=O)cn2c1` [Cpd 27, 3-(6-methylimidazo[1,2-a]pyridin-2-yl)-7-(4-methylpiperazin-1-yl)-2H-pyrano[2,3-b]pyridin-2-one], for which the “total protein normalized Smn level, brain” value in the test with Smn protein [1] (QD IP for 7 days (PND 3 to PND 9) (FIG. 9a)) was “dose dependently increased”. Moreover, the “total protein normalized Smn level, spinal cord” value with Smn protein [1] (QD IP for 7 days (PND 3 to PND 9) (FIG. 9b)) was “dose dependently increased”. Moreover, the “total protein normalized Smn level, muscle” value in the test with Smn protein [1] (QD IP for 7 days (PND 3 to PND 9) (FIG. 9c)) is listed as “dose dependently increased”.
Regarding `CN1CCN(c2ccc3cc(-c4nc5c(Cl)cccc5s4)c(=O)oc3n2)CC1` [Cpd 5, 3-(4-chloro-1,3-benzothiazol-2-yl)-7-(4-methylpiperazin-1-yl)-2H-pyrano[2,3-b]pyridin-2-one], the “gems (nuclear speckle count) relative to DMSO” value in test [2] is given as “progressively more gems”. Besides, in the test with Smn protein [3], the “total protein-normalized Smn level, brain” value is given as “increased”; the “total protein-normalized Smn level, muscle” value is reported as “increased”; the “total protein-normalized Smn level, spinal cord” value is “increased”.
